Source: US20230302036A1, “COMPOSITIONS FOR TREATMENT OF SPINAL MUSCULAR ATROPHY” (priority 2020, published 2023)
Oligonucleotides are written 5' to 3', each unit as a sugar letter and its base; * is a phosphorothioate linkage, no mark a phosphodiester; rarer units and linkages stand in square brackets, end groups in braces. Plain capitals give the bases only. e = 2'-O-(2-methoxyethyl) (MOE); [5mC] = 5-methylcytosine

Assays:
SMA mice = test: Righting reflex test of P7 SMA mice; assay type: in vivo, mouse; details: for righting reflex delay (in words): untreated mutant ~45 seconds
SMN2 pre-mRNA = test: Transcriptional activation by RT-qPCR of SMN2 pre-mRNA in HEK293T cells; assay type: cell-based, human; details: HDAC inhibitor alone
[1] = tested on: H3K9me2 on merged SMN1 and SMN2 genes; test: Genome-wide ChIP-seq analysis of H3K9me2 mark deposition in HEK293T cells; assay type: cell-based, human
[2] = tested on: H3K9me2 along the SMN2 gene; test: ChIP-qPCR of H3K9me2 distribution along the SMN2 gene in HEK293T cells; assay type: cell-based, human
[3] = tested on: H3K9Ac along the SMN2 gene; test: ChIP-qPCR of H3K9Ac distribution along the SMN2 gene in HEK293T cells; assay type: cell-based, human; details: 10 mM VPA 12 hr or ASO1 transfection
Procedure: Four independent immunoprecipitation replicates were conducted per experiment. Data are represented as mean ± S.D. (n = 4, *p < 0.05, two-tailed Student's t test). […] Top: control Western blot for efficient expression of the c-Myc-SMN fusion protein encoded by plasmid […], cat.# 71687) using anti-tubulin (tub.) as loading control. Bottom: […] Distribution of these histone marks was assessed by ChIP-qPCR, with amplicons mapping near the numbered exons (E) and introns (i). Three independent immunoprecipitation replicates were conducted per experiment. Data are represented as mean ± S.D. (n = 5; in all cases p was much higher than 0.05, two-tailed Student's t test). […] Top: control Western blot for efficient expression of the […] fusion protein encoded by plasmid pEGFP-RNASEH1 (Addgene, cat.# 108699), using anti-actin (act.) as loading control. Bottom: […] Top: control Western blot for efficient AGO1 knockdown using anti-tubulin (tub.) as loading control. Bottom: […] RT-PCR conditions for FIGS. 10A, 10C and 10D were as in FIGS. 1A-1G . Approximately 2×10^6 HEK293T cells per sample were treated for 10 min in 1% (v/v) formaldehyde at room temperature to crosslink protein-DNA complexes. Crosslinking was stopped with glycine at a final concentration of 125 mM. […]

[4] = tested on: RNAPII (total, P-Ser5, P-Ser2) along the SMN2 gene; test: ChIP-qPCR of RNAPII distribution along the SMN2 gene in HEK293T cells; assay type: cell-based, human

Molecule	righting reflex delay (in words) (SMA mice)	levels of SMN2 pre-mRNA (promoter-proximal amplicon) (SMN2 pre-mRNA)	reverting effect of VPA on SMN1/2 compared with control genes ([1]; ASO1+VPA/control+VPA, 11,738 protein-coding genes)	decrease of H3K9me2 methylation mark ([1]; HEK293T treated with VPA, merged SMN1 and SMN2 genes)	effect of VPA on ASO1-promoted H3K9me2 ([2]; HEK293T transfected with ASO1 and treated with 10 mM VPA)	H3K9me2 marks along the SMN2 gene ([2]; HEK293T, ASO transfection or 10 mM VPA)	H3K9 acetylation along the SMN2 gene [3]	RNAPII peak (total, P-Ser5, P-Ser2) in ASO1-transfected cells additionally treated with VPA ([4]; ASO1 plus 10 mM VPA)	roadblocks to elongation in ASO2-transfected cells treated with VPA ([4]; ASO2 plus 10 mM VPA)	righting reflex, time to right (SMA mice)	share of control-set genes with lower ASO1/control fold enrichment than SMN1/2 ([1]; 11,738 protein-coding genes as reference)	enrichment of H3K9me2 ChIP-seq reads compared with the control ([1]; HEK293T, merged SMN1 and SMN2 genes)	H3K9 dimethylation, peak increase at the promoter and the alternative E7 areas ([2]; HEK293T transfected with ASO1 vs scramble oligo)	P-Ser2 RNAPII density ([4]; ASO transfection vs scramble)	P-Ser5 RNAPII density ([4]; ASO transfection vs scramble)	total RNAPII density ([4]; ASO transfection vs scramble)
CCCC(CCC)C(=O)O [VPA, valproic acid]	not significantly changed	increased the levels of SMN2 pre-mRNA	higher than for the majority of the control genes	67%	completely abolished the ASO1 effect	reduced the H3K9me2 marks relative to the control	promoted intragenic H3K9 acetylation	abolished	abolished	–	–	–	–	–	–	–
ASO1: 5′-ATTCACTTTCATAATGCTGG-3′ 2′-O-methoxyethyl-modified oligonucleotide with phosphorothioate backbone and all 5-methyl cytosines; nusinersen variant with 2-nucleotide extension (antisense eA*eT*eT*e[5mC]*eA*e[5mC]*eT*eT*eT*e[5mC]*eA*eT*eA*eA*eT*eG*e[5mC]*eT*eG*eG)	greatly reduced	–	–	–	–	–	not affected	–	–	~ 10 seconds	~ 91 % of the genes in the control set	44%	8 fold	greatly increased	greatly increased	greatly increased
